# From PubChem BioAssay AID2060604 (Molecular Pharmacology Branch, DTP, NCI, 2025)
# Tested on: 379773-124-R-J2-PDC complex spheroids, viability % test/control
# Assay: Anticancer human tumor 379773-124-R-J2-PDC patient-derived endometrial carcinoma cell line growth inhibition [CLK]
# Conditions: for IC50: curve of first compound; for viability, T/C: stronger effect = lower value
# Outline: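 Multi-cell-type spheroids combined patient-derived tumor cells with HUVEC endothelial cells and human mesenchymal stem cells. Paired agents were dosed in half-log steps down from about clinical Cmax, or from 10 microM where Cmax was unknown.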
# 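Further: compound exposure lasted seven days before the viability readout.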
# 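Wherever viability, T/C is given: 100% = DMSO vehicle control wells.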
compound,measurement,setting,value
CC(C)CC(NC(=O)C(Cc1ccccc1)NC(=O)c1cnccn1)B(O)O (centres undefined) + CNC(=O)c1ccc(Nc2nc(OC3CCCC3)c3c(-c4ccc5nc(C)oc5c4)c[nH]c3n2)c(OC)c1,IC50,second compound 0.0316 µM,1.54 nM
same,IC50,second compound 0.1 µM,< 0.949 nM
same,IC50,second compound 0.316 µM,< 0.949 nM
same,IC50,second compound 1 µM,< 0.949 nM
same,IC50,second compound 3.16 µM,< 0.949 nM
same,IC50,second compound 10 µM,< 0.949 nM
same,"viability, T/C","second compound 0.0316 µM, first compound 0.000949 µM",81.6%
same,"viability, T/C","second compound 0.0316 µM, first compound 0.003 µM",6.67%
same,"viability, T/C","second compound 0.0316 µM, first compound 0.00949 µM",0.17%
same,"viability, T/C","second compound 0.0316 µM, first compound 0.03 µM",0.19%
same,"viability, T/C","second compound 0.0316 µM, first compound 0.0949 µM",0.13%
same,"viability, T/C","second compound 0.0316 µM, first compound 0.3 µM",0.1%
same,"viability, T/C","second compound 0.1 µM, first compound 0.000949 µM",33.4%
same,"viability, T/C","second compound 0.1 µM, first compound 0.003 µM",3.4%
same,"viability, T/C","second compound 0.1 µM, first compound 0.00949 µM",0.32%
same,"viability, T/C","second compound 0.1 µM, first compound 0.03 µM",0.13%
same,"viability, T/C","second compound 0.1 µM, first compound 0.0949 µM",0.12%
same,"viability, T/C","second compound 0.1 µM, first compound 0.3 µM",0.09%
same,"viability, T/C","second compound 0.316 µM, first compound 0.000949 µM",42.3%
same,"viability, T/C","second compound 0.316 µM, first compound 0.003 µM",1.94%
same,"viability, T/C","second compound 0.316 µM, first compound 0.00949 µM",0.13%
same,"viability, T/C","second compound 0.316 µM, first compound 0.03 µM",0.1%
same,"viability, T/C","second compound 0.316 µM, first compound 0.0949 µM",0.08%
same,"viability, T/C","second compound 0.316 µM, first compound 0.3 µM",0.08%
same,"viability, T/C","second compound 1 µM, first compound 0.000949 µM",31.1%
same,"viability, T/C","second compound 1 µM, first compound 0.003 µM",1.88%
same,"viability, T/C","second compound 1 µM, first compound 0.00949 µM",0.11%
same,"viability, T/C","second compound 1 µM, first compound 0.03 µM",0.1%
same,"viability, T/C","second compound 1 µM, first compound 0.0949 µM",0.08%
same,"viability, T/C","second compound 1 µM, first compound 0.3 µM",0.08%
same,"viability, T/C","second compound 3.16 µM, first compound 0.000949 µM",30.1%
same,"viability, T/C","second compound 3.16 µM, first compound 0.003 µM",0.38%
same,"viability, T/C","second compound 3.16 µM, first compound 0.00949 µM",0.11%
same,"viability, T/C","second compound 3.16 µM, first compound 0.03 µM",0.09%
same,"viability, T/C","second compound 3.16 µM, first compound 0.0949 µM",0.1%
same,"viability, T/C","second compound 3.16 µM, first compound 0.3 µM",0.13%
same,"viability, T/C","second compound 10 µM, first compound 0.000949 µM",33.1%
same,"viability, T/C","second compound 10 µM, first compound 0.003 µM",0.42%
same,"viability, T/C","second compound 10 µM, first compound 0.00949 µM",0.13%
same,"viability, T/C","second compound 10 µM, first compound 0.03 µM",0.11%
same,"viability, T/C","second compound 10 µM, first compound 0.0949 µM",0.16%
same,"viability, T/C","second compound 10 µM, first compound 0.3 µM",0.12%
CCN1CCN(Cc2ccc(Nc3ncc(F)c(-c4cc(F)c5nc(C)n(C(C)C)c5c4)n3)nc2)CC1 + CNC(=O)c1ccc(Nc2nc(OC3CCCC3)c3c(-c4ccc5nc(C)oc5c4)c[nH]c3n2)c(OC)c1,IC50,second compound 0.0316 µM,> 1000 nM
same,IC50,second compound 0.1 µM,< 3.16 nM
same,IC50,second compound 0.316 µM,< 3.16 nM
same,IC50,second compound 1 µM,< 3.16 nM
same,IC50,second compound 3.16 µM,< 3.16 nM
same,IC50,second compound 10 µM,< 3.16 nM
same,"viability, T/C","second compound 0.0316 µM, first compound 0.00316 µM",74.5%
same,"viability, T/C","second compound 0.0316 µM, first compound 0.01 µM",77.5%
same,"viability, T/C","second compound 0.0316 µM, first compound 0.0316 µM",75.4%
same,"viability, T/C","second compound 0.0316 µM, first compound 0.1 µM",76.6%
same,"viability, T/C","second compound 0.0316 µM, first compound 0.316 µM",87.1%
same,"viability, T/C","second compound 0.0316 µM, first compound 1 µM",81.5%
same,"viability, T/C","second compound 0.1 µM, first compound 0.00316 µM",32.6%
same,"viability, T/C","second compound 0.1 µM, first compound 0.01 µM",48.7%
same,"viability, T/C","second compound 0.1 µM, first compound 0.0316 µM",40.5%
same,"viability, T/C","second compound 0.1 µM, first compound 0.1 µM",31.1%
same,"viability, T/C","second compound 0.1 µM, first compound 0.316 µM",42.7%
same,"viability, T/C","second compound 0.1 µM, first compound 1 µM",37.2%
same,"viability, T/C","second compound 0.316 µM, first compound 0.00316 µM",31.9%
same,"viability, T/C","second compound 0.316 µM, first compound 0.01 µM",41.5%
same,"viability, T/C","second compound 0.316 µM, first compound 0.0316 µM",40%
same,"viability, T/C","second compound 0.316 µM, first compound 0.1 µM",38%
same,"viability, T/C","second compound 0.316 µM, first compound 0.316 µM",44.6%
same,"viability, T/C","second compound 0.316 µM, first compound 1 µM",31.5%
same,"viability, T/C","second compound 1 µM, first compound 0.00316 µM",43.2%
same,"viability, T/C","second compound 1 µM, first compound 0.01 µM",30.3%
same,"viability, T/C","second compound 1 µM, first compound 0.0316 µM",31.3%
same,"viability, T/C","second compound 1 µM, first compound 0.1 µM",30%
same,"viability, T/C","second compound 1 µM, first compound 0.316 µM",36%
same,"viability, T/C","second compound 1 µM, first compound 1 µM",34.1%
same,"viability, T/C","second compound 3.16 µM, first compound 0.00316 µM",33.8%
same,"viability, T/C","second compound 3.16 µM, first compound 0.01 µM",31.4%
same,"viability, T/C","second compound 3.16 µM, first compound 0.0316 µM",34.2%
same,"viability, T/C","second compound 3.16 µM, first compound 0.1 µM",31.5%
same,"viability, T/C","second compound 3.16 µM, first compound 0.316 µM",44.9%
same,"viability, T/C","second compound 3.16 µM, first compound 1 µM",28.5%
same,"viability, T/C","second compound 10 µM, first compound 0.00316 µM",32.5%
same,"viability, T/C","second compound 10 µM, first compound 0.01 µM",24.3%
same,"viability, T/C","second compound 10 µM, first compound 0.0316 µM",35.7%
same,"viability, T/C","second compound 10 µM, first compound 0.1 µM",30.9%
same,"viability, T/C","second compound 10 µM, first compound 0.316 µM",37.3%
same,"viability, T/C","second compound 10 µM, first compound 1 µM",33.2%
